Measurements from patent EP1724268A1, “COMPOUND HAVING TGF-BETA INHIBITORY ACTIVITY AND PHARMACEUTICAL COMPOSITION CONTAINING SAME” (KIRIN BEER KABUSHIKI KAISHA, priority 2004, dated 2005).
Where two headings read alike, the source gives them in different places.

System: TGFβ signal
Assay: TGFβ signal inhibitory activity, (SBE)4-Luc reporter in A549 cells (Test Examples 1A and 1B)
Assay type: cell-based, human
Conditions: Homo sapiens, A549, read-out: TGFβ inhibition rate, %
How it was run: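 Stable A549 line carrying (SBE)4-Luc Smad3-binding reporter treated with compound plus TGFβ-1 (2 ng/ml) for 4 hr; luciferase read by chemiluminescence. Percent inhibition relative to TGFβ-only and untreated cells, tested at 3 µM and 10 µM, some also at 1 µM.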

[1] = test compound 3 µM, Reference Examples, Table 1B
[2] = test compound 10 µM, Reference Examples, Table 1B
[3] = 3 µM, compounds of Reference Examples (Test Example 1B)
[4] = 10 µM, compounds of Reference Examples (Test Example 1B)
[5] = test compound 3 µM, TGFβ-1 2 ng/ml, 4 hr, Table 1A
[6] = test compound 10 µM, TGFβ-1 2 ng/ml, 4 hr, Table 1A

SMILES	inhibition at 3 µM [3]	inhibition at 10 µM [4]	other results
CCOC(=O)c1cc(Cl)ccc1Oc1ccnc2cc(OC)c(OC)cc12 [Compound r84]			inhibition at 3 µM [1]: 84%; inhibition at 10 µM [2]: 100%
COc1cc2nccc(Oc3ccc4c(ccn4C(C)=O)c3)c2cc1OC [Compound r21]			inhibition at 3 µM [1]: 16%; inhibition at 10 µM [2]: 71%
COc1cc2c(Oc3cc(C)c(C)cc3C(C)=O)ccnc2cc1OCCCCl [Compound r318]	82%	100%	
CCCCc1ccc(-c2nc(C)ccc2Oc2ccnc3cc(OC)c(OC)cc23)cc1 [Compound r244]	-3%	63%	
Cc1csc2ncnc(Oc3cc4cccnc4nc3-c3ccccc3)c12 [Compound 77, 3-(5-Methyl-thieno[2,3-d]pyrimidin-4-yloxy)-2-phenyl-[1,8]naphthyridine]			inhibition at 3 µM [5]: 93%; inhibition at 10 µM [6]: 99%
COc1ccc(C(=O)c2ccc(C)cc2)c(Oc2ccnc3cc(OC)c(OC)cc23)c1 [Compound r65]			inhibition at 3 µM [1]: 58%; inhibition at 10 µM [2]: 100%
COc1cc2nccc(Oc3cc4cccnc4nc3-c3ccccc3)c2cc1OC [Compound r422]	100%	100%	
Clc1ccc2ncnc(Oc3cc4cccnc4nc3-c3ccccc3)c2c1 [Compound 68, 6-Chloro-4-(2-phenyl-[1,8]naphthyridin-3-yloxy)-quinazoline]			inhibition at 3 µM [5]: 43%; inhibition at 10 µM [6]: 91%
COc1cc2c(Oc3cc(C)c(C)nc3-c3cccc(C)n3)ccnc2cc1OCc1ccccc1 [Compound r442]	70%	100%	
Cc1ccc(Oc2ccnc3ccc(OCC(C)(C)C)cc23)c(-c2ncccn2)n1 [Compound 214, 6-(2,2-Dimethyl-propoxy)-4-(6-methyl-2-pyrimidin-2-yl-pyridin-3-yloxy)-quinoline]			inhibition at 3 µM [5]: 90%
c1ccc(-c2nc3ncccc3cc2Oc2ncnc3ccsc23)cc1 [Compound 75, 2-Phenyl-3-(thieno[3,2-d]pyrimidin-4-yloxy)-[1,8]naphthyridine]			inhibition at 3 µM [5]: 84%; inhibition at 10 µM [6]: 98%
COc1cc2c(Oc3ccc(C)cc3C(=O)c3ccccc3)ccnc2cc1OCCCCl [Compound r132]			inhibition at 3 µM [1]: 72%; inhibition at 10 µM [2]: 99%
CCc1ccc(Oc2ccnc3ccc(O)cc23)c(-c2ncccn2)n1 [Compound 191, 4-(6-Ethyl-2-pyrimidin-2-yl-pyridin-3-yloxy)-quinolin-6-ol]			inhibition at 3 µM [5]: 99%; inhibition at 10 µM [6]: 100%
CCCOC(=O)c1cc2ccccc2cc1Oc1ccnc2cc(OCCN3CCOCC3)c(OC)cc12 [Compound r323]	89%	100%	
COc1cc2nccc(Oc3cc(C)c(C)nc3-c3ccccn3)c2cc1OCCO [Compound 144, 2-[4-(5,6-Dimethyl-[2,2']bipyridinyl-3-yloxy)-7-methoxy-quinolin-6-yloxy]-ethanol]			inhibition at 3 µM [5]: 93%; inhibition at 10 µM [6]: 100%
COc1cc2nccc(Nc3cnc4ccccc4c3)c2cc1OC [r418]	46%	73%	
COc1cc2c(Oc3cc(C)c(C)nc3-c3cccc(C)n3)ccnc2cc1OCCCl [Compound r465]	98%	100%	
COc1cc2c(Oc3cc4cccnc4nc3C)ccnc2cc1OCCCO [Compound r402]	90%	100%	
COc1cc2c(Oc3cc(C)c(C)nc3-c3cccc(C)n3)ccnc2cc1OCC1CO1 (centres unmarked) [Compound r446]	35%	89%	
COc1cc2nccc(Oc3cc4cnccc4nc3C)c2cc1OC [r311]	53%	90%	
COc1cc2c(Oc3cc(C)c(C)nc3-c3cccc(C)n3)ccnc2cc1OCCO [Compound r450]	94%	100%	
Cc1cc(Oc2ccnc3ccc(Cl)cc23)c(-c2ccccn2)nc1C [Compound 156, 3-(6-Chloro-quinolin-4-yloxy)-5,6-dimethyl-[2,2']bipyridine]			inhibition at 3 µM [5]: 100%; inhibition at 10 µM [6]: 100%

SMILES	inhibition at 3 µM [3]	inhibition at 10 µM [4]	other results
COc1cc2nccc(Oc3ccc(C)nc3C(=O)c3cccc(C)n3)c2cc1OC [r221]	71%	98%	
COc1cc2nccc(Sc3ccc4ccccc4n3)c2cc1OC [r420]	2%	62%	
COc1cc2nccc(Oc3ccc(Br)cc3C(=O)c3ccccc3)c2cc1OC [Compound r70]			inhibition at 3 µM [1]: 73%; inhibition at 10 µM [2]: 100%
COc1cc2nccc(Oc3ccc(C)cc3[N+](=O)[O-])c2cc1OC [r13]			inhibition at 3 µM [1]: 28%; inhibition at 10 µM [2]: 78%
COc1cc2c(Oc3ccc(C)cc3C(=O)c3ccccc3)ccnc2cc1OCCCN1CCC(N2CCCC2)CC1 [Compound r136]			inhibition at 3 µM [1]: 90%; inhibition at 10 µM [2]: 100%
c1ccc(-c2nc3ncccc3cc2Oc2ccnc3ccccc23)cc1 [Compound 52, 2-Phenyl-3-(quinolin-4-yloxy)-[1,8]naphthyridine]			inhibition at 3 µM [5]: 96%; inhibition at 10 µM [6]: 100%
COc1cc2nccc(Oc3cc(C)c(C)nc3-c3ccc(O)nc3)c2cc1OC [Compound r430]	19%	78%	
CCCCOc1ccc(Oc2ccnc3cc(OC)c(OC)cc23)c(C(C)=O)c1 [r180]	-2%	55%	
COc1cc2nccc(Oc3ccc(C)cc3C(O)CCCCCCCCCO)c2cc1OC (centres unmarked) [r165]	38%	89%	
COc1cc2c(Oc3cc(C)c(C)nc3-c3nc(C)c(C)s3)ccnc2cc1OCC1CO1 (centres unmarked) [Compound r458]	94%	100%	
COc1cc2c(Oc3cc4ccccc4nc3C(C)=O)ccnc2cc1OCCN1CCCCC1 [Compound r467]	100%		
COc1cc2nccc(Oc3cc4ccccc4nc3-c3ccncc3)c2cc1OC [r289]	80%	99%	
COc1cc2c(Oc3cc(C)c(C)nc3-c3ccccn3)ccnc2cc1C [Compound 119, 3-(6-Methoxy-7-methyl-quinolin-4-yloxy)-5,6-dimethyl-[2,2']bipyridine]			inhibition at 3 µM [5]: 100%; inhibition at 10 µM [6]: 100%
COc1cc2nccc(Oc3ccc(C)nc3-c3ccccc3OC)c2cc1OC [Compound r227]	50%	87%	
COc1ccc(Oc2ccnc3cc(OCCN4CCOCC4)c(OC)cc23)c(C(C)=O)c1 [r120]			inhibition at 3 µM [1]: 94%; inhibition at 10 µM [2]: 100%
COc1ccc(C(C)=O)c(Oc2ccnc3cc(OC)c(OC)cc23)c1 [r31]			inhibition at 3 µM [1]: 49%; inhibition at 10 µM [2]: 98%
COc1cc2c(Oc3ccc(C)cc3C(=O)c3ccccc3)ccnc2cc1OCCCCNCCO [r142]			inhibition at 3 µM [1]: 100%; inhibition at 10 µM [2]: 100%
COc1cc2c(Oc3cc(C)c(C)nc3-c3ccccn3)ccnc2cc1OCC1CO1 (centres unmarked) [Compound r341]	99%		
COc1cc2nccc(Oc3ccc4ncsc4c3I)c2cc1OC [r294]	53%	77%	
CCOC(=O)c1cc(C)ccc1Oc1ccnc2cc(OC)c(OC)cc12 [Compound r87]			inhibition at 3 µM [1]: 84%; inhibition at 10 µM [2]: 99%
Cc1cc(Oc2ccnc3ccc(-c4cc5ccccc5o4)cc23)c(-c2ccccn2)nc1C [Compound 166, 3-(6-Benzofuran-2-yl-quinolin-4-yloxy)-5,6-dimethyl-[2,2']bipyridine]			inhibition at 3 µM [5]: 78%; inhibition at 10 µM [6]: 100%
